Experiments:
[1] = target: T1, human Werner helicase (WRN, Uniprot Q14191, amino acids 517-1235 with L1074F point mutation; WRN-BV08) (Homo sapiens, UniProt Q14191, L1074F); test: WRN (BV08) ADP-Glo assay; type: biochemical; settings: WRN-BV08 (aa 517-1235, L1074F); read-out: ADP-Glo_hWRN_IC50
T1 construct: Uniprot Q14191, amino acids 517-1235 with L1074F point mutation; 8xHis (C, cleaved yes); TEV cleavage site (ENLYFQG) (C, cleaved yes); made in house; host or cells: Sf9 insect cells (baculovirus, pFastBac)
T1 sequence (Q14191 with tags, fused parts or gaps L1074F): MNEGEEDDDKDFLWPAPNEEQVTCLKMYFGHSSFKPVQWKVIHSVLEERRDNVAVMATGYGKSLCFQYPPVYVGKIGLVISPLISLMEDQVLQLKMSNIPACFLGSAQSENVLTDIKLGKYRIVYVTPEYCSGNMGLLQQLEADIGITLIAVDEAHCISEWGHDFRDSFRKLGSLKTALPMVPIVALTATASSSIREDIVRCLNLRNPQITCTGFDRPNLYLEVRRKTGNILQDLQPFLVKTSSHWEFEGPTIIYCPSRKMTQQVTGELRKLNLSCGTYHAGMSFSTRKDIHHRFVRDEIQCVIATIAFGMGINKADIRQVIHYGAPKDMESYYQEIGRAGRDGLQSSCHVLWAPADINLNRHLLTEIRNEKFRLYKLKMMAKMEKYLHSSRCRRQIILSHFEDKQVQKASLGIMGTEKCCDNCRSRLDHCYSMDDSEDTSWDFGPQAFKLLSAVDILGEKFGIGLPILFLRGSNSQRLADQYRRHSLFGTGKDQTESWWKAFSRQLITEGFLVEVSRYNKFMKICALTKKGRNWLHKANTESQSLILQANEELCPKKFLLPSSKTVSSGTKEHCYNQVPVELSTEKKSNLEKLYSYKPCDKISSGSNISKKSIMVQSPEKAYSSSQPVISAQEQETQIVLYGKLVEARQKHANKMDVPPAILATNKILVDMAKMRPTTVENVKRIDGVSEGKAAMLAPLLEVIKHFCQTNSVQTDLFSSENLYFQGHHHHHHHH
How it was run: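 WRN 517-1235 (L1074F, untagged, Sf9-expressed), 0.15 nM, preincubated with compound 15 min at 25 °C, then 60 min with […] and 0.1 nM DNA duplex in Bicine pH 7.5, 1 mM MgCl2, 1% DMSO. ADP-Glo luminescence; % inhibition vs NSC-617145 control, four-parameter IC50 fit.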

[2] = test system: p21 induction in HCT 116 cells; test: p21 induction in cells (In-Cell Western, p21/GAPDH ratio); type: cell-based; settings: Homo sapiens, HCT-116, 24 h, 24 h compound incubation, read-out: P21_EC50
How it was run: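 HCT 116 cells treated 24 h at 37° C with 11-point, 2-fold dilutions starting typically at 10 μM, in duplicate. Fixed cells immunostained for p21 and GAPDH; 800/700 nm ratio normalised between DMSO and reference WRN inhibitor controls as percent activation. EC50 from non-linear regression.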

Row | SMILES | IC50 [1] [nM] | EC50 [2] [nM]
1 | CCc1c(N2CCN(C(=O)c3ncc4c(c3O)CCO4)CC2)c(=O)n2nc(C3=CCN(C(=O)COC)CC3)nc2n1CC(=O)NC12CC(C(F)(F)F)(C1)C2 [I-21, 2-(5-ethyl-6-(4-(4-hydroxy-2,3-dihydrofuro[2,3-c]pyridine-5-carbonyl)piperazin-1-yl)-2-(1-(2-methoxyacetyl)-1,2,3,6-tetrahydropyridin-4-yl)-7-oxo-[1,2,4]triazolo[1,5-a]pyrimidin-4(7H)-yl)-N-(3-(trifluoromethyl)bicyclo[1.1.1]pentan-1-yl)acetamide] | 5 to 50 | 2000 to 5000
2 | CCc1c(N2CCN(C(=O)c3cnn(C)c3)CC2)c(=O)n2nc(C3=CCOCC3)nc2n1CC(=O)NC1CC2(C1)CC2F (stereo not shown) [I-249, 2-(2-(3,6-dihydro-2H-pyran-4-yl)-5-ethyl-6-(4-(1-methyl-1H-pyrazole-4-carbonyl)piperazin-1-yl)-7-oxo-[1,2,4]triazolo[1,5-a]pyrimidin-4(7H)-yl)-N-(1-fluorospiro[2.3]hexan-5-yl)acetamide] | 100 to 500 | > 5000
3 | CCc1c(N2CCN(C(=O)c3c(O)ccc4ncoc34)CC2)c(=O)n2nc(-c3ccnc(OC)c3)nc2n1CC(=O)NC12CCC(C(F)(F)F)(CC1)CC2 [I-45, 2-(5-ethyl-6-(4-(6-hydroxybenzo[d]oxazole-7-carbonyl)piperazin-1-yl)-2-(2-methoxypyridin-4-yl)-7-oxo-[1,2,4]triazolo[1,5-a]pyrimidin-4(7H)-yl)-N-(4-(trifluoromethyl)bicyclo[2.2.2]octan-1-yl)acetamide] | 5 to 50 | 2000 to 5000
4 | CCc1c(N2CCN(C(=O)c3ncnc(C)c3O)[C@H]3CC[C@@H]32)c(=O)n2nc(C3=CCOCC3)nc2n1CC(=O)NC12CC(C(C)C)(C1)C2 [I-222, 2-(2-(3,6-dihydro-2H-pyran-4-yl)-5-ethyl-6-((1S,6S)-5-(5-hydroxy-6-methylpyrimidine-4-carbonyl)-2,5-diazabicyclo[4.2.0]octan-2-yl)-7-oxo-[1,2,4]triazolo[1,5-a]pyrimidin-4(7H)-yl)-N-(3-isopropylbicyclo[1.1.1]pentan-1-yl)acetamide] | 5 to 50 | ≤ 500
5 | CCc1c(N2CCN(C(=O)c3ncnc(C)c3O)[C@H]3CC[C@@H]32)c(=O)c2nc(N(C)C)cnc2n1CC(=O)NC12CC(C3CCC3)(C1)C2 [I-226, N-(3-cyclobutylbicyclo[1.1.1]pentan-1-yl)-2-(2-(dimethylamino)-6-ethyl-7-((1S,6S)-5-(5-hydroxy-6-methylpyrimidine-4-carbonyl)-2,5-diazabicyclo[4.2.0]octan-2-yl)-8-oxopyrido[2,3-b]pyrazin-5(8H)-yl)acetamide] | 5 to 50 | ≤ 500
6 | CCc1c(N2CCN(C(=O)c3cnn(C)c3)CC2)c(=O)n2nc(-c3ccnc(OC)c3)nc2n1CC(=O)NC1Cc2ccc(F)cc2C1 (stereo not shown) [I-246, 2-(5-ethyl-2-(2-methoxypyridin-4-yl)-6-(4-(1-methyl-1H-pyrazole-4-carbonyl)piperazin-1-yl)-7-oxo-[1,2,4]triazolo[1,5-a]pyrimidin-4(7H)-yl)-N-(5-fluoro-2,3-dihydro-1H-inden-2-yl)acetamide] | 100 to 500 | > 5000
7 | CCc1c(C2=CCN(C(=O)c3ncnc(C)c3O)CC2C)c(=O)c2nn(-c3ccnc(OC)c3)nc2n1CC(=O)NC12CC(C(C)C)(C1)C2 (single isomer, unassigned) [I-97] | 5 to 50 | ≤ 500

Second part, the compound after the results:

Row | IC50 [1] [nM] | EC50 [2] [nM] | SMILES
8 | 100 to 500 | > 5000 | CCc1c(N2CCN(C(=O)c3ncnc(C)c3O)[C@H]3CC[C@@H]32)c(=O)c2nc(N(C)C)cnc2n1CC(=O)NC12CC(C(F)(F)F)(C1)C2 (relative stereo) [I-2, rel-2-(2-(dimethylamino)-6-ethyl-7-((1S,6S)-5-(5-hydroxy-6-methylpyrimidine-4-carbonyl)-2,5-diazabicyclo[4.2.0]octan-2-yl)-8-oxopyrido[2,3-b]pyrazin-5(8H)-yl)-N-(3-(trifluoromethyl)bicyclo[1.1.1]pentan-1-yl)acetamide]
9 | 5 to 50 | > 5000 | CCc1c(N2CCN(C(=O)c3ncnc(C)c3O)CC2)c(=O)c2nc(-c3ccnc(OC)c3)oc2n1CC(=O)NC12CC(C(F)(F)F)(C1)C2 [I-16, 2-(5-ethyl-6-(4-(5-hydroxy-6-methylpyrimidine-4-carbonyl)piperazin-1-yl)-2-(2-methoxypyridin-4-yl)-7-oxooxazolo[5,4-b]pyridin-4(7H)-yl)-N-(3-(trifluoromethyl)bicyclo[1.1.1]pentan-1-yl)acetamide]
10 | 5 to 50 | > 5000 | CCc1c(N2CCN(C(=O)c3ncnc(C)c3O)CC2)c(=O)c2nc3cc(C)sc3nc2n1CC(=O)NC12CC(C(F)(F)F)(C1)C2 [I-3, 2-(7-ethyl-6-(4-(5-hydroxy-6-methylpyrimidine-4-carbonyl)piperazin-1-yl)-2-methyl-5-oxopyrido[2,3-b]thieno[3,2-e]pyrazin-8(5H)-yl)-N-(3-(trifluoromethyl)bicyclo[1.1.1]pentan-1-yl)acetamide]
11 | 5 to 50 | 2000 to 5000 | CCc1c(N2CCN(C(=O)c3ncc4c(c3O)CCO4)CC2)c(=O)n2nc(C3=CCN(C(C)=O)CC3)nc2n1CC(=O)NC12CC(C(F)(F)F)(C1)C2 [I-11, 2-(2-(1-acetyl-1,2,3,6-tetrahydropyridin-4-yl)-5-ethyl-6-(4-(4-hydroxy-2,3-dihydrofuro[2,3-c]pyridine-5-carbonyl)piperazin-1-yl)-7-oxo-[1,2,4]triazolo[1,5-a]pyrimidin-4(7H)-yl)-N-(3-(trifluoromethyl)bicyclo[1.1.1]pentan-1-yl)acetamide]

Reference: patent US20250206738A1, “WRN INHIBITORS” (Nimbus Wadjet, Inc., priority 2023, published 2025)
